Legend:
Adrenergic α1B = biological target: T1, Adrenergic α1B (Rattus norvegicus, UniProt P15823); experiment: Radioligand binding, Adrenergic α1B
T1 construct: Eurofins Panlabs, Inc. (contract assay)

Bradykinin B2 = biological target: T2, Bradykinin B2 (Homo sapiens, UniProt P30411); experiment: Radioligand binding, Bradykinin B2
T2 construct: Eurofins Panlabs, Inc. (contract assay)

Muscarinic M3 = biological target: T3, Muscarinic M3 (Homo sapiens, UniProt P20309); experiment: Radioligand binding, Muscarinic M3
T3 construct: Eurofins Panlabs, Inc

Adrenergic α1A = biological target: T4, Adrenergic α1A (Rattus norvegicus, UniProt P43140); experiment: Radioligand binding, Adrenergic α1A
T4 construct: Eurofins Panlabs, Inc. (contract assay) 203100 (assay number)

Cannabinoid CB1 = biological target: T5, Cannabinoid CB1 (Homo sapiens, UniProt P21554); experiment: Radioligand binding, Cannabinoid CB1
T5 construct: Eurofins Panlabs, Inc. (contract assay)

Adenosine A3 = biological target: T6, Adenosine A3 (Homo sapiens, UniProt P0DMS8); experiment: Radioligand binding, Adenosine A3
T6 construct: Eurofins Panlabs, Inc. (contract assay) 200720 (assay number)

[1] = biological target: T7, Transporter, Dopamine (DAT) (Homo sapiens, UniProt Q01959); experiment: Radioligand binding, Transporter, Dopamine (DAT)
T7 construct: Eurofins Panlabs

[2] = biological target: T8, Epidermal Growth Factor (EGF) (Homo sapiens, UniProt P00533); experiment: Radioligand binding, Epidermal Growth Factor (EGF)
T8 construct: Eurofins Panlabs, Inc. (contract assay)

Bradykinin B1 = biological target: T9, Bradykinin B1 (Homo sapiens, UniProt P46663); experiment: Radioligand binding, Bradykinin B1
T9 construct: Eurofins Panlabs, Inc. (contract assay)

Muscarinic M1 = biological target: T10, Muscarinic M1 (Homo sapiens, UniProt P11229); experiment: Radioligand binding, Muscarinic M1
T10 construct: Eurofins Panlabs, Inc

GABAB1A = biological target: T11, GABAB1A (Homo sapiens, UniProt Q9UBS5); experiment: Radioligand binding, GABAB1A
T11 construct: Eurofins Panlabs, Inc

Glucocorticoid = biological target: T12, Glucocorticoid (Homo sapiens, UniProt P04150); experiment: Radioligand binding, Glucocorticoid
T12 construct: Eurofins Panlabs, Inc

[3] = biological target: T13, Nicotinic Acetylcholine α1, Bungarotoxin (Homo sapiens, UniProt P02708+P07510+Q07001); experiment: biochemical; format: binding; conditions: read-out: % Inh.
T13 construct: Eurofins Panlabs, Inc

Adrenergic α1D = biological target: T14, Adrenergic α1D (Homo sapiens, UniProt P25100); experiment: Radioligand binding, Adrenergic α1D
T14 construct: Eurofins Panlabs, Inc. (contract assay)

TRPM-1 promoter = experiment: SK-MEL-5 TRPM-1 luciferase reporter (TRPM-1 promoter activity assay); format: cell-based; conditions: Homo sapiens; SK-MEL-5 TRPM-1:luc cells, 24 hours, SteadyGlo; read-out: Target Potency IC50 (μM) TRPM1
Method: The TRPM1 luciferase promoter construct was transfected into the SK-MEL-5 melanoma cell line and a stable cell line was generated. This promoter is exquisitely sensitive to MITF over-expression and suppression and contains three canonical E-box motifs within the cloned promoter fragment (17). On day 0, cells were plated at 2,000 cells per well into white, opaque 384 well plates in phenol red-free media. On day 1, cells were treated with compounds or positive control for 24 hours. On day 2, 20 uL of SteadyGlo (Promega) was added per well and luminescence signal was determined with the Perkin-Elmer EnVision plate reader. Primary HTS data were analyzed in Genedata Screener Assay Analyzer. All values were normalized against DMSO treated samples and the positive control (18 μM parthenolide, CID 6473881). For the HTS, the average of two replicates was used to rank order activity and to choose compounds for retests. For dose studies, percent (%) activity was determined for each concentration and the concentration response curves (CRCs) were generated with Genedata Screener's Condoseo.
SK-MEL-5/TRPM1Luc cells were maintained in DMEM (10% FBS, 1% Pen-Strep-Glutamine, 250 ug/mL Hygromycin). […]
Day 3 • 5. […] Read on the Perkin-Elmer EnVision plate reader with ultra-sensitive luminescence (US LUM) settings for 0.5 sec per well SK-MEL-5 Cytotoxicity Assay (2084-02)

A375 cells = experiment: A-375 cell cytotoxicity assay (CellTiter-Glo); format: cell-based, human; conditions: Homo sapiens, A-375; 24 hours, CellTiter-Glo; read-out: Antitarget Potency IC50 (μM) A375
Method: A375 cells were treated with compounds for 24 hours, and then cell viability was measured using the CellTiter-Glo Assay (Promega), a luciferase-based reagent that measures cellular ATP levels. The compounds were tested at different concentrations to determine IC50 values. Compounds that were active in the primary assay and were not toxic below 30 μM at 24 hours were considered for probe development. Data were normalized against DMSO in Genedata Screener's Assay Analyzer.
A-375 cells were maintained in DMEM (10% FBS, 1% Pen-Strep-Glutamine). Cells were fluid changed every 3 days and/or split upon reaching 90% confluency. For secondary assays, cells were thawed at 2 million cells per Falcon T175 flask. After 3 days, cells were passed to a Corning Triple flask (6-8 million cells) and plated after 3 days in the triple flask.
Day 1 • 1. Plate A-375 cells at 3,000 per well in 30 uL media (phenol red free DMEM/10% Fetal Bovine Serum/Penicillin/Streptomycin/L-Glutamine) • 2. Use Corning white 384-well, square, opaque-bottomed plates (Corning Catalog No. 8867BC)
Day 2 • 3. Pin 100 nL compound/DMSO solution (Cybi Well) into assay plates. (For HTS, required sentinel pinning with the positive control, parthenolide (6 mM)) • 4. Incubate 24 hours at 37° C. in Liconic incubator.
Day 3 • 5. […] Read on the Perkin-Elmer EnVision plate reader with luminescence (LUM) settings for 0.1 sec per well. […]

DCT = experiment: qPCR assay for DCT expression in SK-MEL-5 cells; format: cell-based; conditions: Homo sapiens; SK-MEL-5 melanoma cells, up to 35 μM
TRPM1 = experiment: qPCR assay for TRPM1 expression in SK-MEL-5 cells; format: cell-based; conditions: Homo sapiens; SK-MEL-5 melanoma cells, up to 35 μM; read-out: TRPM-1 qPCR assay EC50
MLANA = experiment: qPCR assay for MLANA expression in SK-MEL-5 cells; format: cell-based; conditions: Homo sapiens; SK-MEL-5 melanoma cells, up to 35 μM

T8 sequence (P00533 25-1210): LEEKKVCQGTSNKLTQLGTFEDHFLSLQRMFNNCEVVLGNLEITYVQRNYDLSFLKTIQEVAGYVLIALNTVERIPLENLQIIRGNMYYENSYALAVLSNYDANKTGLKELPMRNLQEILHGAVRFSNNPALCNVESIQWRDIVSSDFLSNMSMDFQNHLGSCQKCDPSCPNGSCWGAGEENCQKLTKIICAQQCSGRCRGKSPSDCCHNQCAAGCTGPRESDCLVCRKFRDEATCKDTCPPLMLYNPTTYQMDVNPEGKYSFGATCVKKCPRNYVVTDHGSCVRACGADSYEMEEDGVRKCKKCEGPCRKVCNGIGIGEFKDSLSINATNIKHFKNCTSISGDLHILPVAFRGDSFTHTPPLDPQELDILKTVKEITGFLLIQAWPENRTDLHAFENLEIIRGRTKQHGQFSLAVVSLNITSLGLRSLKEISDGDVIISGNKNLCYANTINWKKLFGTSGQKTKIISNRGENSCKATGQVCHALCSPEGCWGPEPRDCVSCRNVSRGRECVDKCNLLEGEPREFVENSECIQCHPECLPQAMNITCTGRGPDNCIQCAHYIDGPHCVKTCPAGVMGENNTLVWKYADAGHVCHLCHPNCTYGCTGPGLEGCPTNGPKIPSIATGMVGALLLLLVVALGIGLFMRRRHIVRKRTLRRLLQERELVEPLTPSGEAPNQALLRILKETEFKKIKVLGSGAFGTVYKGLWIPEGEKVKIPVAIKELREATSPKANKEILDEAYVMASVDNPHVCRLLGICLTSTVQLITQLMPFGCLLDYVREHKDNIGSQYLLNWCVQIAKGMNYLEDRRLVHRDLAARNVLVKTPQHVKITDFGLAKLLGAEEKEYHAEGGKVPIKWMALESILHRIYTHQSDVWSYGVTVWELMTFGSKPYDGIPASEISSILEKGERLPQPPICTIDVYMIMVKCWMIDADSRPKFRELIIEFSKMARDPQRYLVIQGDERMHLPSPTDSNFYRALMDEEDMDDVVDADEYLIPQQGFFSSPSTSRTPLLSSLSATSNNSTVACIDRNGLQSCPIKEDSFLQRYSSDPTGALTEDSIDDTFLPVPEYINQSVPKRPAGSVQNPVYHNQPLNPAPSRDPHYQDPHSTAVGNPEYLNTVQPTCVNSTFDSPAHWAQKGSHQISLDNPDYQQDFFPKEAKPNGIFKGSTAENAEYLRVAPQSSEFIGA
T3 sequence (P20309 whole entry): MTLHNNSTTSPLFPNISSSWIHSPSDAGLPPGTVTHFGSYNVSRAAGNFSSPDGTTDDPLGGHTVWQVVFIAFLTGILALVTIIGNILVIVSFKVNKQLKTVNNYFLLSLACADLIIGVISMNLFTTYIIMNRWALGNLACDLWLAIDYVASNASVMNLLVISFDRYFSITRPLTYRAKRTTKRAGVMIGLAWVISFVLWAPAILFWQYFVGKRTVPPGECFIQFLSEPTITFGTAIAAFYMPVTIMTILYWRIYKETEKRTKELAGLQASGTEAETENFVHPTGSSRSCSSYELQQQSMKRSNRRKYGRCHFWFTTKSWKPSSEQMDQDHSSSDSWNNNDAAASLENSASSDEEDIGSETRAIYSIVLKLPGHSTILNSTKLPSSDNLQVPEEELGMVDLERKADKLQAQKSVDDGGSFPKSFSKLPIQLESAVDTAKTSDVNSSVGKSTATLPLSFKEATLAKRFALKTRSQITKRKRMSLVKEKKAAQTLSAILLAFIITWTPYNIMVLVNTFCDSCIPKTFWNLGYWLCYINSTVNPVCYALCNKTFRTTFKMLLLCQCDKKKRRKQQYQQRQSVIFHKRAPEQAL
T10 sequence (P11229 whole entry): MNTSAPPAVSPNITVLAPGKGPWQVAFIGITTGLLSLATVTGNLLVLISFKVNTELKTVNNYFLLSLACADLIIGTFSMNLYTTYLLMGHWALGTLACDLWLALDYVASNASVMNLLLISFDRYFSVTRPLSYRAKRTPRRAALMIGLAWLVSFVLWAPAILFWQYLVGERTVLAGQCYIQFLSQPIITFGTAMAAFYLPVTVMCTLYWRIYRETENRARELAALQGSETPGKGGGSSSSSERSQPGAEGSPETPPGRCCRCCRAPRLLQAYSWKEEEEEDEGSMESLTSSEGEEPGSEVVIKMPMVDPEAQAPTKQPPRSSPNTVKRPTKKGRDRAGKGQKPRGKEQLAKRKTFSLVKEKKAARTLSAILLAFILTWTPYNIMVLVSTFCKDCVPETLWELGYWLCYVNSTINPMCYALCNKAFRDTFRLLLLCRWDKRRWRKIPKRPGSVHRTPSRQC
T1 sequence (P15823 whole entry): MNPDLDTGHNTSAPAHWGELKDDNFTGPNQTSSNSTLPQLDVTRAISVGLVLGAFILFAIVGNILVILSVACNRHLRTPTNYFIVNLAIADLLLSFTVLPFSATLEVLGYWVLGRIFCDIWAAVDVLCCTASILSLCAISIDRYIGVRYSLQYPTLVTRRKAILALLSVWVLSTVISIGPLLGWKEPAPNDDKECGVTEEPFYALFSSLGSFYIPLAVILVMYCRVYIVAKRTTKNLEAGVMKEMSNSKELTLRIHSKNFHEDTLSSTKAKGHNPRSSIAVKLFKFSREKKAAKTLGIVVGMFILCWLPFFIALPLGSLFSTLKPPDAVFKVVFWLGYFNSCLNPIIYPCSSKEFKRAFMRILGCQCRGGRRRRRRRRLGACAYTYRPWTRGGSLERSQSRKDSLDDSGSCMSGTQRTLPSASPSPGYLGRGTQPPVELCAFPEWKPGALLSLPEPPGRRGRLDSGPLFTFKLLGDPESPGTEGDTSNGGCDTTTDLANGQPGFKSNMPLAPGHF
T12 sequence (P04150 whole entry): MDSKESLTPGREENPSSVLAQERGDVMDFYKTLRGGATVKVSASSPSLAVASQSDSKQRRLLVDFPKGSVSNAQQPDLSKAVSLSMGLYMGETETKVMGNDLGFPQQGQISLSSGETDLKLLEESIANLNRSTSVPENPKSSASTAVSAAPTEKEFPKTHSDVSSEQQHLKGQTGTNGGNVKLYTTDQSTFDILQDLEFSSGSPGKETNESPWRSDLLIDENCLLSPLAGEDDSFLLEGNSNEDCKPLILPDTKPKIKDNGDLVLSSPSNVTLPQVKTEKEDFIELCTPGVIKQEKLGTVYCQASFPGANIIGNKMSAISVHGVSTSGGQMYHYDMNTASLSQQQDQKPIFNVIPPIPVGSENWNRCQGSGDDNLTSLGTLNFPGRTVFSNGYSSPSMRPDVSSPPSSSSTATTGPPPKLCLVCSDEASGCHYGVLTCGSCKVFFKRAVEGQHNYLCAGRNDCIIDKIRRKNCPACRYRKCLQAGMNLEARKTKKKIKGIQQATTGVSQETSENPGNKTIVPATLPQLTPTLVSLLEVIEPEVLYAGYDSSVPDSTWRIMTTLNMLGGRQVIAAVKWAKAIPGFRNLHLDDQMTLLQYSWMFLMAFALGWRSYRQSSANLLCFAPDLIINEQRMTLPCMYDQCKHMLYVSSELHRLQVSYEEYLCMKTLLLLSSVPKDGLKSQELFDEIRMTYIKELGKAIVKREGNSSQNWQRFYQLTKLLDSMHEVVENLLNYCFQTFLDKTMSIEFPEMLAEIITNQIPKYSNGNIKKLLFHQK
T2 sequence (P30411 whole entry): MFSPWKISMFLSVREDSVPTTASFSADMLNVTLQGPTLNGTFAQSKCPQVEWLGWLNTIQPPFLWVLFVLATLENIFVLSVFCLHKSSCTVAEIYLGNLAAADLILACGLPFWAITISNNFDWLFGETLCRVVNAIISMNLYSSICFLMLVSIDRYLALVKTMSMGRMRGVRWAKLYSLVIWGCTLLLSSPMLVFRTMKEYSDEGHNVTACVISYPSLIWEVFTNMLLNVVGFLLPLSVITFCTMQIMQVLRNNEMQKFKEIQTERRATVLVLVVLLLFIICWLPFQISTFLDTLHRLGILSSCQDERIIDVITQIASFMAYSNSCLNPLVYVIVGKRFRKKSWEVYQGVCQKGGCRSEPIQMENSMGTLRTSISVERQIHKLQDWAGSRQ
T4 sequence (P43140 whole entry): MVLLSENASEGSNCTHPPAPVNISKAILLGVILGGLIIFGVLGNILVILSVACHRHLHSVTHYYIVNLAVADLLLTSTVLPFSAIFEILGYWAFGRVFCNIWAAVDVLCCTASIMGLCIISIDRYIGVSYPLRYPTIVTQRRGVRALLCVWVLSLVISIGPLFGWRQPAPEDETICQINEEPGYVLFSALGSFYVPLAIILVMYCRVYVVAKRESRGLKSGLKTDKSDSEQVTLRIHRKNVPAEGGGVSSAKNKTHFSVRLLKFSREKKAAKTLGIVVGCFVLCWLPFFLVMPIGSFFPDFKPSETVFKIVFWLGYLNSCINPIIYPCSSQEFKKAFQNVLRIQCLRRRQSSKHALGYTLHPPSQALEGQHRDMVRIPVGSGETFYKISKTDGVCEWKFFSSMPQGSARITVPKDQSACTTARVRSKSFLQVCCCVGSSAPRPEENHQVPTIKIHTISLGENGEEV
T7 sequence (Q01959 whole entry): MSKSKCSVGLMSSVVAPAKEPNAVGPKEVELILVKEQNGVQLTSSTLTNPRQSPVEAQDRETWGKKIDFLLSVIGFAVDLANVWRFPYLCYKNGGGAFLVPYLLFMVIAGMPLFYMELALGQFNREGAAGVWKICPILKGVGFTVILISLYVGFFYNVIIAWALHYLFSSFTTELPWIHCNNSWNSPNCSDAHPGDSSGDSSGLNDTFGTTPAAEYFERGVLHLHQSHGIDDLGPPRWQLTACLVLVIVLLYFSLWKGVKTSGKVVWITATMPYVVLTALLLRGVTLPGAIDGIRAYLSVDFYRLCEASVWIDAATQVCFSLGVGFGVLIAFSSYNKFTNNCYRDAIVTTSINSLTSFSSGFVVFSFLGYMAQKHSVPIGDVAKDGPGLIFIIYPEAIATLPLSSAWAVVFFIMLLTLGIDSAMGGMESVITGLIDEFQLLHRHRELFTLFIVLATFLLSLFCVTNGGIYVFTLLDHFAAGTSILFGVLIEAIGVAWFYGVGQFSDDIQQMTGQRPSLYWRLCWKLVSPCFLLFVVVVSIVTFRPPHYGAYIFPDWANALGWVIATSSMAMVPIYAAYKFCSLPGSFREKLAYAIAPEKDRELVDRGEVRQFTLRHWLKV

SMILES | inhibition at 10 µM (Adrenergic α1B) [%] | inhibition at 10 µM (Bradykinin B2) [%] | inhibition at 10 µM (Muscarinic M3) [%] | inhibition at 10 µM (Adrenergic α1A) [%] | inhibition at 10 µM (Cannabinoid CB1) [%] | inhibition at 10 µM (Adenosine A3) [%] | inhibition at 10 µM [1] [%] | inhibition at 10 µM [2] [%] | inhibition at 10 µM (Bradykinin B1) [%] | inhibition at 10 µM (Muscarinic M1) [%] | inhibition at 10 µM (GABAB1A) [%] | inhibition at 10 µM (Glucocorticoid) [%] | inhibition at 10 µM [3] [%] | inhibition at 10 µM (Adrenergic α1D) [%] | IC50 (TRPM-1 promoter) [µM] | IC50 (A375 cells) [µM] | EC50 (DCT) [µM] | EC50 (TRPM1) [µM] | EC50 (MLANA) [µM]
NS(=O)(=O)c1ccc(NC2=CC(=O)c3ccccc3C2=O)cc1 [Example 1, 4-((1,4-Dioxo-1,4-dihydronaphthalen-2-yl)amino)benzenesulfonamide] | 16 | 11 | 22 | 28 | 31 | 15 | 2 | 11 | 29 | 7 | 11 | 5 | -2 | 21 |  |  |  |  | 
NS(=O)(=O)c1ccc(NC2=CC(=O)c3ccccc3C2=O)cc1 [4-((1,4-dioxo-1,4-dihydronaphthalen-2-yl)amino)benzenesulfonamide] |  |  |  |  |  |  |  |  |  |  |  |  |  |  | 1.2 | > 35 | 0.1 | 0.16 | 0.5
